# Data taken from patent US11866414B2, “Substituted heterocyclic compounds” (BRISTOL-MYERS SQUIBB COMPANY, priority 2021, dated 2024).
# Where two headings read alike, the source gives them in different places.
# Key:
# Caco-2 cells [1] = conditions: human, Caco-2, 2 h, 3 μM, pH 7.4
# [2] = Brain penetration in vivo assay (brain and plasma exposure); conditions: for Kp at 1 h: C57BL6, brain / plasma, 10 mg/kg, mouse, 10 mpk, po, read-out: Ratio of exposure in brain to plasma (mouse) (1 h, 10 mpk, po)
# Experimental: Brain Penetration In Vivo Assay
# A pharmacokinetic study was performed using C57BL6 wild-type mice (n=3 per experiment) to determine brain and plasma exposure of compounds of the invention. The compound was administered orally in a solution of 5% ETHANOL: 90% PEG 300; 5% TPGS at 5 mL/kg for a final concentration of 10 mg/kg. Nice were euthanized 1 hour post-dose and plasma and brain were collected and frozen for analysis. Brain tissues were homogenized in a 1:1 volume of blank C57BL6 mouse plasma. Concentrations of the compound in plasma and brain homogenate were determined by LC-MS analysis.
# Caco-2 cells [3] = test: Bidirectional permeability assay in Caco-2 cells; conditions: for Efflux Ratio: Caco-2, 3 μM, pH 7.4, 2 hours; for CACO2 (A-B): permeability coefficient apical-to-basolateral, 3 μM, pH 7.4, 0.5% BSA, 2 hours, 37° C.
# in vitro = conditions: human, Caco-2, pH 7.4
# [4] = test system: IFNα-induced STAT phosphorylation (pSTAT5); test: IFNα-induced STAT phosphorylation in human whole blood; format: cell-based; conditions: 1 h compound, 1000 U/mL IFNα A/D 15 min, CD3 positive population, read-out: Human Whole blood IFNa pSTAT5 IC50
structure (smiles),measurement,setting,value
"[2H]C([2H])([2H])NC(=O)c1nnc(NC(=O)C2CC2)cc1Nc1cccc(-c2cnn(C([2H])([2H])[2H])n2)c1OC [Example 52, 6-cyclopropaneamido-4-({2-methoxy-3-[2-(^2H3)methyl-2H-1,2,3-triazol-4-yl]phenyl}amino)-N—(^2H3)methylpyridazine-3-carboxamide]",CACO2 (A-B),Caco-2 cells [1],482 nm/s
"[2H]C([2H])([2H])NC(=O)c1nnc(NC(=O)C2CC2)cc1Nc1ccc(C2CC2)c(-c2cnn(C)n2)c1OC [Example 55, 6-cyclopropaneamido-4-{[4-cyclopropyl-2-methoxy-3-(2-methyl-2H-1,2,3-triazol-4-yl)phenyl]amino}-N—(^2H3)methylpyridazine-3-carboxamide]",CACO2 (A-B),Caco-2 cells [1],507 nm/s
"[2H]C([2H])([2H])NC(=O)c1nnc(NC(=O)C2CC2)cc1Nc1nccc(-c2cnn(C)n2)c1OC(F)F [Example 60, 6-cyclopropaneamido-4-{[3-(difluoromethoxy)-4-(2-methyl-2H-1,2,3-triazol-4-yl)pyridin-2-yl]amino}-N—(^2H3)methylpyridazine-3-carboxamide]",CACO2 (A-B),Caco-2 cells [1],340 nm/s
"[2H]C([2H])([2H])NC(=O)c1nnc(NC(=O)C2CC2)cc1Nc1cc(F)cc(-c2cnn(C3CC3)n2)c1OC [Example 12, 6-cyclopropaneamido-4-{[3-(2-cyclopropyl-2H-1,2,3-triazol-4-yl)-5-fluoro-2-methoxyphenyl]amino}-N—(^2H3)methylpyridazine-3-carboxamide]","Ratio of exposure in brain to plasma (mouse) (1 h, 10 mpk, po)",[2],0.7
same,CACO2 (A-B),Caco-2 cells [1],173 nm/s
"[2H]C([2H])([2H])NC(=O)c1nnc(NC(=O)C2CC2)cc1Nc1cccc(-c2cnn(C3CCC3)n2)c1OC [Example 54, 4-{[3-(2-cyclobutyl-2H-1,2,3-triazol-4-yl)-2-methoxyphenyl]amino}-6-cyclopropaneamido-N—(^2H3)methylpyridazine-3-carboxamide]",CACO2 (A-B),Caco-2 cells [1],180 nm/s
"[2H]C([2H])([2H])NC(=O)c1nnc(NC(=O)N(C)CC)cc1Nc1nccc(-c2cnn(C)n2)c1OC [Example 58, 6-{[ethyl(methyl)carbamoyl]amino}-4-{[3-methoxy-4-(2-methyl-2H-1,2,3-triazol-4-yl)pyridin-2-yl]amino}-N—(^2H3)methylpyridazine-3-carboxamide]",Efflux Ratio,Caco-2 cells [3],0.6
same,CACO2 (A-B),Caco-2 cells [3],314 nm/s
"[2H]C([2H])([2H])NC(=O)c1nnc(NC(=O)C2CC2)cc1Nc1ccc(F)c(-c2cnn(C)n2)c1OC [Example 18, 6-cyclopropaneamido-4-{[4-fluoro-2-methoxy-3-(2-methyl-2H-1,2,3-triazol-4-yl)phenyl]amino}-N—(^2H3)methylpyridazine-3-carboxamide]",CACO2 (A-B),Caco-2 cells [1],654 nm/s
"[2H]C([2H])([2H])NC(=O)c1nnc(NC(=O)C2CC2)cc1Nc1cccc(-c2cnn(C3COC3)n2)c1OC [Example 53, 6-cyclopropaneamido-4-({2-methoxy-3-[2-(oxetan-3-yl)-2H-1,2,3-triazol-4-yl]phenyl}amino)-N—(^2H3)methylpyridazine-3-carboxamide]",Efflux Ratio,Caco-2 cells [3],0.7
same,CACO2 (A-B),Caco-2 cells [3],425 nm/s
"[2H]C([2H])([2H])NC(=O)c1nnc(NC(=O)C2CC2)cc1Nc1cc(Cl)cc(-c2cnn(CC)n2)c1OC [Example 15, 4-{[5-chloro-3-(2-ethyl-2H-1,2,3-triazol-4-yl)-2-methoxyphenyl]amino}-6-cyclopropaneamido-N—(^2H3)methylpyridazine-3-carboxamide]",CACO2 (A-B),Caco-2 cells [1],63 nm/s
"[2H]C([2H])([2H])NC(=O)c1nnc(NC(=O)C2CC2)cc1Nc1ccc(F)c(-c2cnn(C3CC3)n2)c1OC [Example 16, 6-cyclopropaneamido-4-{[3-(2-cyclopropyl-2H-1,2,3-triazol-4-yl)-4-fluoro-2-methoxyphenyl]amino}-N—(^2H3)methylpyridazine-3-carboxamide]",CACO2 (A-B),Caco-2 cells [1],392 nm/s
"[2H]C([2H])([2H])NC(=O)c1nnc(NC(=O)C2CC2)cc1Nc1cccc(-c2cnn(C)n2)c1OC(F)F [Example 56, 6-cyclopropaneamido-4-{[2-(difluoromethoxy)-3-(2-methyl-2H-1,2,3-triazol-4-yl)phenyl]amino}-N—(^2H3)methylpyridazine-3-carboxamide]",CACO2 (A-B),Caco-2 cells [1],432 nm/s
"[2H]C([2H])([2H])NC(=O)c1nnc(NC(=O)C2CC2)cc1Nc1cccc(-c2cnn(CC(F)F)n2)c1OC [Example 3, 6-cyclopropaneamido-4-({3-[2-(2,2-difluoroethyl)-2H-1,2,3-triazol-4-yl]-2-methoxyphenyl}amino)-N—(^2H3)methylpyridazine-3-carboxamide]","Ratio of exposure in brain to plasma (mouse) (1 h, 10 mpk, po)",[2],0.3
same,CACO2 (A-B),Caco-2 cells [1],368 nm/s
"[2H]C([2H])([2H])NC(=O)c1nnc(NC(=O)C2CC2)cc1Nc1cccc(-c2cnn(CC)n2)c1OC [Example 1, 6-(cyclopropanecarboxamido)-4-((2-methoxy-3-(2-ethyl-2H-1,2,3-triazol-4-yl)phenyl)amino)-N-(methyl-d3)pyridazine-3-carboxamide]",Kp at 1 h,[2],0.7
same,"Papp A→B at 2 h, 3 μM",in vitro,29.1 ×10⁻⁶ cm/s
same,"efflux ratio at 2 h, 3 μM",in vitro,0.8
same,IC50,[4],260 nM
"[2H]C([2H])([2H])NC(=O)c1nnc(NC(=O)C2CC2)cc1Nc1nccc(-c2cnn(C3CC3)n2)c1OC [Example 14, 6-cyclopropaneamido-4-{[4-(2-cyclopropyl-2H-1,2,3-triazol-4-yl)-3-methoxypyridin-2-yl]amino}-N—(^2H3)methylpyridazine-3-carboxamide]","Ratio of exposure in brain to plasma (mouse) (1 h, 10 mpk, po)",[2],0.8
same,CACO2 (A-B),Caco-2 cells [1],446 nm/s
"[2H]C([2H])([2H])NC(=O)c1nnc(NC(=O)[C@@H]2C[C@H]2C)cc1Nc1nccc(-c2cnn(C)n2)c1OC [Example 41, 4-((3-methoxy-4-(2-methyl-2H-1,2,3-triazol-4-yl)pyridin-2-yl)amino)-N-(methyl-d3)-6-((1R,2R)-2-methylcyclopropane-1-carboxamido)pyridazine-3-carboxamide]",Kp at 1 h,[2],0.3
same,"Papp A→B at 2 h, 3 μM",in vitro,33.9 ×10⁻⁶ cm/s
same,"efflux ratio at 2 h, 3 μM",in vitro,0.5
same,IC50,[4],80 nM
"[2H]C([2H])([2H])NC(=O)c1nnc(NC(=O)C2CC2)cc1Nc1cc(OC)cc(-c2cnn(C)n2)c1OC [Example 24, 6-(cyclopropane-carboxamido)-4-((2,5-dimethoxy-3-(2-methyl-2H-1,2,3-triazol-4-yl)phenyl)amino)-N-(methyl-d3)pyridazine-3-carboxamide]",Kp at 1 h,[2],0.2
same,"Papp A→B at 2 h, 3 μM",in vitro,33 ×10⁻⁶ cm/s
same,"efflux ratio at 2 h, 3 μM",in vitro,0.5
same,IC50,[4],120 nM
"[2H]C([2H])([2H])NC(=O)c1nnc(NC(=O)C2CC2)cc1Nc1ccc(F)c(-c2cnn(CC)n2)c1OC [Example 10, 6-cyclopropaneamido-4-{[3-(2-ethyl-2H-1,2,3-triazol-4-yl)-4-fluoro-2-methoxyphenyl]amino}-N—(^2H3)methylpyridazine-3-carboxamide]","Ratio of exposure in brain to plasma (mouse) (1 h, 10 mpk, po)",[2],0.1
same,CACO2 (A-B),Caco-2 cells [1],340 nm/s
"[2H]C([2H])([2H])NC(=O)c1nnc(NC(=O)C2CC2)cc1Nc1cccc(-c2cnn(C3CC3)n2)c1OC [Example 11, 6-cyclopropaneamido-4-{[3-(2-cyclopropyl-2H-1,2,3-triazol-4-yl)-2-methoxyphenyl]amino}-N—(^2H3)methylpyridazine-3-carboxamide]",Kp at 1 h,[2],0.5
same,"Papp A→B at 2 h, 3 μM",in vitro,9.7 ×10⁻⁶ cm/s
same,"efflux ratio at 2 h, 3 μM",in vitro,0.7
same,IC50,[4],120 nM
